From PubChem BioAssay (NCI)
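Dose response: 5 concentrations. Exposure: 48 h. Format: 96-well plates. Endpoint: linear interpolation; highest concentration if not reached. Here, GI50 denotes the concentration required for 50% inhibition of growth. At the TGI there is no net growth.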

How the values were obtained:
Experiment in all cases: growth of human tumour cells (NCI), 48 h
[1] = test system: HS 578T breast
[2] = test system: MOLT-4 leukemia
[3] = test system: HCC-2998 colon
[4] = test system: HCT-116 colon
[5] = test system: MDA-MB-435
[6] = test system: UACC-62 melanoma
[7] = test system: SF-295 CNS
[8] = test system: IGROV1 ovarian
[9] = test system: SK-OV-3 ovarian
[10] = test system: T-47D breast
[11] = test system: SW-620 colon
[12] = test system: SF-268 CNS
[13] = test system: HT29 colon
[14] = test system: RXF 393 renal
[15] = test system: OVCAR-5 ovarian
[16] = test system: HOP-62 NSCLC
[17] = test system: U251 CNS
[18] = test system: CAKI-1 renal
[19] = test system: SF-539 CNS
[20] = test system: UACC-257 melanoma
[21] = test system: MCF7 breast
[22] = test system: A498 renal
[23] = test system: TK-10 renal
[24] = test system: COLO 205 colon
[25] = test system: NCI-H522 lung
[26] = test system: SN12C renal
[27] = test system: HCT-15 colon
[28] = test system: PC-3 prostate
[29] = test system: M14 melanoma
[30] = test system: SK-MEL-2 melanoma
[31] = test system: RPMI-8226 leukemia
[32] = test system: SR leukemia
[33] = test system: NCI/ADR-RES ovarian
[34] = test system: SK-MEL-28 melanoma
[35] = test system: SNB-19 CNS
[36] = test system: ACHN renal
[37] = test system: NCI-H460 lung
[38] = test system: OVCAR-4 ovarian
[39] = test system: SNB-75 CNS
[40] = test system: EKVX NSCLC
[41] = test system: MALME-3M melanoma
[42] = test system: BT-549 breast
[43] = test system: HL-60(TB) leukemia
[44] = test system: 786-0 renal
[45] = test system: UO-31 renal
[46] = test system: KM12 colon
[47] = test system: LOX IMVI melanoma
[48] = test system: K-562 leukemia
[49] = test system: A549 NSCLC
[50] = test system: OVCAR-8 ovarian
[51] = test system: HOP-92 NSCLC
[52] = test system: DU-145 prostate
[53] = test system: OVCAR-3 ovarian
[54] = test system: SK-MEL-5 melanoma
[55] = test system: MDA-MB-231 breast
[56] = test system: NCI-H23 lung
[57] = test system: NCI-H226 lung

Work on COc1ccc2oc(=O)cc(C3c4ccc([nH]4)C(c4cc(=O)oc5ccc(OC)cc45)c4ccc([nH]4)C(c4cc(=O)oc5ccc(OC)cc45)c4ccc([nH]4)C(c4cc(=O)oc5ccc(OC)cc45)c4ccc3[nH]4)c2c1 (centres undefined) yielded a GI50 [1] of 2.8 µM, a TGI [1] of 9.43 µM and a GI50 [2] of 0.414 µM. The TGI [2] was 4.24 µM, the GI50 [3] was 2.17 µM and the TGI [3] was 4.06 µM. The GI50 [4] was 0.57 µM, the TGI [4] was 1.93 µM and the GI50 [5] was 1.9 µM. For the same compound, the TGI [5] was 6.66 µM, the GI50 [6] was 2.69 µM and the TGI [6] was 7.81 µM. For the same compound, the GI50 [7] was 2.82 µM, the TGI [7] was 10.6 µM and the GI50 [8] was 2.44 µM. For the same compound, the TGI [8] was 10.8 µM, the GI50 [9] was 2.45 µM and the TGI [9] was 7.33 µM. It also gave a GI50 [10] of 0.475 µM, a TGI [10] of 3.69 µM and a GI50 [11] of 0.389 µM. For the same compound, the TGI [11] was 1.69 µM, the GI50 [12] was 2.89 µM and the TGI [12] was 11.2 µM. It also gave a GI50 [13] of 2.28 µM, a TGI [13] of 5.44 µM and a GI50 [14] of 0.318 µM. The TGI [14] was 0.95 µM, the GI50 [15] was 2.98 µM and the TGI [15] was 11.1 µM. It also gave a GI50 [16] of 2.73 µM, a TGI [16] of 9.56 µM and a GI50 [17] of 4 µM. The TGI [17] was 13.9 µM, the GI50 [18] was 2.16 µM and the TGI [18] was 6.77 µM. The GI50 [19] was 1.7 µM, the TGI [19] was 3.91 µM and the GI50 [20] was 2.25 µM. For the same compound, the TGI [20] was 13.2 µM, the GI50 [21] was 0.364 µM and the TGI [21] was 2.16 µM. It also gave a GI50 [22] of 4.09 µM, a TGI [22] of 12.7 µM and a GI50 [23] of 1.58 µM. The TGI [23] was 2.95 µM, the GI50 [24] was 1.75 µM and the TGI [24] was 3.6 µM. For the same compound, the GI50 [25] was 1.65 µM, the TGI [25] was 3.16 µM and the GI50 [26] was 3.12 µM. It also gave a TGI [26] of 12.7 µM, a GI50 [27] of 0.399 µM and a TGI [27] of 1.53 µM. For the same compound, the GI50 [28] was 2.21 µM, the TGI [28] was 6.76 µM and the GI50 [29] was 1.24 µM. For the same compound, the TGI [29] was 4.6 µM, the GI50 [30] was 3.02 µM and the TGI [30] was 9.5 µM. It also gave a GI50 [31] of 0.432 µM, a TGI [31] of 2.04 µM and a GI50 [32] of 0.371 µM. For the same compound, the TGI [32] was 1.66 µM, the GI50 [33] was 0.594 µM and the TGI [33] was 24.8 µM. It also gave a GI50 [34] of 2.48 µM, a TGI [34] of 12.9 µM and a GI50 [35] of 5.48 µM. The TGI [35] was 18.3 µM, the GI50 [36] was 2.12 µM and the TGI [36] was 6.71 µM. The GI50 [37] was 3.11 µM, the TGI [37] was 10.4 µM and the GI50 [38] was 1.26 µM. It also gave a TGI [38] of 2.78 µM, a GI50 [39] of 2.71 µM and a TGI [39] of 14.8 µM. The GI50 [40] was 7.58 µM, the TGI [40] was 22.3 µM and the GI50 [41] was 1.54 µM. It also gave a TGI [41] of 3.73 µM, a GI50 [42] of 2.02 µM and a TGI [42] of 5.36 µM. The GI50 [43] was 0.357 µM, the TGI [43] was 0.976 µM and the GI50 [44] was 1 µM. The TGI [44] was 2.2 µM, the GI50 [45] was 1.22 µM and the TGI [45] was 3.74 µM. The GI50 [46] was 2.91 µM, the TGI [46] was 10.8 µM and the GI50 [47] was 0.814 µM. It also gave a TGI [47] of 2.43 µM, a GI50 [48] of 0.413 µM and a TGI [48] of 2.03 µM. For the same compound, the GI50 [49] was 4.23 µM, the TGI [49] was 14.3 µM and the GI50 [50] was 0.619 µM. For the same compound, the TGI [50] was 2.78 µM, the GI50 [51] was 2.05 µM and the TGI [51] was 6.5 µM. For the same compound, the GI50 [52] was 2.07 µM, the TGI [52] was 4.75 µM and the GI50 [53] was 0.23 µM. The TGI [53] was 0.611 µM, the GI50 [54] was 2.21 µM and the TGI [54] was 9.07 µM. The GI50 [55] was 2.15 µM, the TGI [55] was 9.04 µM and the GI50 [56] was 2.37 µM. The TGI [56] was 6.42 µM, the GI50 [57] was 1.36 µM and the TGI [57] was 4.63 µM.
